Data on three compounds can be found in ChEMBL document CHEMBL1201862, “PubChem BioAssay data set” (2004).

A word on the IC50: it is the concentration that inhibits the measured activity by half.

The source made the active and inactive calls. Rule as the data show it: actives have a measured IC50 and inactives only a lower limit.

Sequence of Envelope glycoprotein gp160 (Q6QLK5 whole entry, the tested form may be a part): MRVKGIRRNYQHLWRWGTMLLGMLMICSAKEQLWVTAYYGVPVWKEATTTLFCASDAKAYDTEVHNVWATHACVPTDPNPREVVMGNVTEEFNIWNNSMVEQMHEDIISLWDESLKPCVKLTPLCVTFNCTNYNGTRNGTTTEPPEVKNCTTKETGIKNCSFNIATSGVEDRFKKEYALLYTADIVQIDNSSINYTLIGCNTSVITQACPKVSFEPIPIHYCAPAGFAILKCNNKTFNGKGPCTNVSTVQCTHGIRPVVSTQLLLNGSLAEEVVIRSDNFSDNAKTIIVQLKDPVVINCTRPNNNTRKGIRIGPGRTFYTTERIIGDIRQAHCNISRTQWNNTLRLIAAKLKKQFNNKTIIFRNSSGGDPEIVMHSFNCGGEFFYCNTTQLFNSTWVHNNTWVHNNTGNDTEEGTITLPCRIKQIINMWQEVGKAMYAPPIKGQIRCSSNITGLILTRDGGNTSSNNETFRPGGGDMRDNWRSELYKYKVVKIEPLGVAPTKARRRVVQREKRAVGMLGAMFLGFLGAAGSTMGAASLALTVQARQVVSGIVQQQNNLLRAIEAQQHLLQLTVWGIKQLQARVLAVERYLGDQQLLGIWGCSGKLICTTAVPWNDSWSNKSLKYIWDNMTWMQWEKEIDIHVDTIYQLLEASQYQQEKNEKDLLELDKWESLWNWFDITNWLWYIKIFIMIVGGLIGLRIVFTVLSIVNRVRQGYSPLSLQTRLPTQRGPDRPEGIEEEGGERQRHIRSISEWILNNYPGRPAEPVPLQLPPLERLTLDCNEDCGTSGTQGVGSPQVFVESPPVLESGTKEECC

The experiment has as its target Envelope glycoprotein gp160 (Human immunodeficiency virus 1, UniProt Q6QLK5). The experiment is described as follows: cell-free HIV fusion peptide-binding blockers – biochemical, uHTS, fluorescence dequenching, […] (AID 1986).
As for `CCCCCCCCCCCCCCCC[n+]1ccn(CC(C)=O)c1`, the half-maximal inhibitory concentration (IC50) was 14.4 µM (active). Consider `Cc1ccccc1NC1=NC(=O)/C(=C/c2cccn2-c2cccc(C(=O)O)c2)S1`, for which the half-inhibitory concentration (IC50) is 11.3 µM (active).

`O=C(Nc1ccc(-c2nc3ccccc3[nH]2)cc1)c1ccccc1NS(=O)(=O)c1ccc(F)cc1`: the half-inhibitory concentration (IC50) is 24.6 µM (active).
